Measured values as given in patent publication US10060935B2, “ApoIII and the treatment and diagnosis of diabetes” (BioCrine AB, priority 2003, dated 2018).
Entries after “also recorded” stand apart in the source; their conditions may differ.

Legend:
[1] = test system: Ca2+-channel; assay: Immunoblot experiments for direct interaction with the Ca2+-channel; format: binding; conditions: immunoblot (data not shown)
[2] = test system: pancreatic β-cells; assay: Measurements of [Ca2+]i (fura-2) in β-cells upon depolarization with 25 mM KCl; format: cell-based, mouse; conditions: for increase in [Ca2+]i / Ca2+ influx upon depolarization: 10 μg/ml, incubation of β-cells, versus vehicle (0.1% TFA) control
Description: Preparation of Cells Adult mice from a local colony (3) were starved overnight. Pancreatic islets were isolated by a collagenase technique and cell suspensions were prepared as previously described (4, 5). Cells were seeded onto glass coverslips and cultured at 37° C. in a humidified atmosphere of 5% CO2 in air. • Preparation and Purification of Sera: Sera from T1D patients and control subjects were collected, identically sterile-processed and stored frozen at −20° C. until used. The sera were heat-inactivated by incubation at 56° C. for 30 min. Thereafter β-cells were incubated overnight in RPMI 1640 culture medium with 10% of the sera and changes in [Ca^2+]i were recorded, subsequent to depolarization with 25 mM KCl. The five T1D sera that induced an enhanced [Ca^2+]i response were centrifuged and the supernatant was passed through a […] sterile filter. Samples were loaded on Sep-Pak C18 (Waters, Ma) preconditioned with 0.1% TFA. After a wash with 0.1% TFA, proteins were eluted with 60% acetonitrile in 0.1% TFA and thereafter lyophilized. Batches of one milligram of the lyophilized sample were dissolved in 500 μl 0.1% TFA, centrifuged and injected into a RP-HPLC with a Vydac C18 (0.46×25 cm) column (Grace Vydac, Hesperia, Ca). The separation was made using a linear gradient of 20-60% acetonitrile in 0.1% TFA for 40 min at 1 ml/min. Fractions of 1 ml were collected and lyophilized.
Measurements of [Ca^2+]i Cells, attached to coverslips, were pretreated with the different compounds as described in the results and thereafter incubated in basal medium with 2 μM fura-2AM (Molecular Probes, Eugene, Oreg.) for 30 min. The coverslips were mounted as the bottom of an open chamber and cells were perfused with medium. Fluorescence signals were recorded with a SPEX Fluorolog-2 system connected to an inverted Zeiss Axiovert epifluorescence microscope. The excitation and emission wavelengths were 340/380 and 510 nm, respectively. The results are presented as 340/380 excitation ratios, directly representative of [Ca^2+]i (7).

[3] = test system: voltage-gated L-type Ca2+-channel; assay: Perforated-patch whole-cell patch clamp of Ca2+ currents in β-cells; format: cell-based, mouse; conditions: β-cells incubated with 10 μg/ml apoCIII overnight; depolarizations −10 to 10 mV from holding potential −70 mV
Description: Patch Clamp Whole-cell Ca^2+ currents were recorded by using the perforated-patch variant of the whole-cell patch-clamp recording technique to eliminate the loss of soluble cytoplasmic components. Electrodes were filled with (in mM): 76 Cs2SO4, 1 MgCl2, 10 KCl, 10 NaCl, and 5 HEPES (pH 7.35), as well as amphotericin B (0.24 mg/ml) to permeabilize the cell membrane and allow low-resistance electrical access without breaking the patch. Pancreatic β-cells were incubated in RPMI 1640 medium with apoCIII (10:g/ml) or vehicle overnight. The cells were bathed in a solution containing (in mM): 138 NaCl, 10 tetraethylammonium chloride, 10 CaCl2, 5.6 KCl, 1.2 MgCl2, 5 HEPES and 3 D-glucose (pH 7.4). Whole-cell currents induced by voltage pulses (from a holding potential of −70 mV to several clamping potentials from −60 to 50 mV in 10 mV increments, 100 ms, 0.5 Hz) were filtered at 1 kHz and recorded. All recordings were made with an Axopatch 200 amplifier (Axon Instruments, Foster City, Calif.) at room temperature (about 22° C.). Acquisition and analysis of data were done using the software program pCLAMP6 (Axon Instruments, Foster City, Calif.).

[4] = test system: RINm5F cells; assay: Flow cytometric analysis of cell death (Annexin V / propidium iodide); format: cell-based; conditions: 40 μg/ml apoCIII added to culture medium with 10% control serum, 36 h
Description: Quantification of apoCIII Sera were collected and prepared as described above. The relative amounts of apoCIII in T1D serum and control serum, respectively were evaluated by comparisons of the peak area corresponding to apoCIII in the second RP-HPLC. • Flow Cytometric Analysis of Cell Death RINm5F cells were cultured for 36 h in the presence of 10% control serum, control serum and 40 μg/ml apoCIII or T1D serum with or without 100 or 200 μg/ml anti-apoCIII. The whole cell population was collected and stained with EGFP-conjugated Annexin V and propidium iodide (PI) (BD PharMingen) and analyzed on a FACscan using CELLQuest acquisition software (Becton Dickinson, Immunocytometry System). FACS gating, based on forward and side scatter, was used to exclude cellular debris and autofluorescence and typically 10 000 cells were selected for analysis.

apolipoprotein CIII [apoCIII]
direct interaction with the Ca2+-channel [1]: not revealed a direct interaction | increase in [Ca2+]i / Ca2+ influx upon depolarization [2]: stimulate Ca^2+ influx | increase in [Ca2+]i / Ca2+ influx upon depolarization ([2]; listed as ApoCIII): increase in [Ca^2+]i | effect on [Ca2+]i ([2]; apoCIII 1, 3 and 6 μg/ml in culture medium): did not see any effects | effect on [Ca2+]i ([2]; apoCIII 10-50 μg/ml in culture medium): responses | Ca2+-channel currents [3]: larger Ca^2+-channel currents than control cells; also recorded: activation of the voltage-gated L-type Ca^2+-channel | cell death [4]: increased cell death | cell death ([4]; listed as ApoCIII): β-cell death
